Results taken from US20160061843A1, “BIOMARKER ASSAY” (Respiratory Clinical Trials Ltd, priority 2014, published 2016).

Columns and labels:
Type in all cases: cell-based, human
[1] = tested on: intracellular pSTAT1 in macrophages; assay: Flow cytometry of IFNγ-induced STAT1 phosphorylation in induced sputum macrophages from COPD subjects; details: IFNγ 10 ng/ml
Excerpt: Sputum samples were collected from 15 COPD subjects on three or four repeat visits (i.e., three to four samples per subject). In each case, the subject inhaled 3% (w/v) saline solution mist through the mouthpiece of an ultrasonic nebulizer for five minutes. Sputum mobilization techniques were utilized to assist with the production of a sputum sample, such as diaphragmatic breathing, huffs, percussion, vibrations and positive expiratory pressure techniques. The subject was asked to attempt to cough sputum into a sputum collection pot. If the FEV1 fell by <10% after inhalation of 3% (w/v) saline, the participant was asked to inhale the next saline concentration (4% w/v) and repeat the procedure detailed above. Again if the FEV1 fell by <10% after inhalation of 4% (w/v) saline, the participant was asked to inhale the next saline concentration (5% w/v) and repeat the procedure detailed above. The sputum collected after 15 minutes of nebulization (i.e., 3×5 minutes) was processed in the laboratory for flow cytometric analysis. Induced sputum was kept on ice and processed as soon as possible but no more than two hours from collection. Sputum plugs were selected for processing and suitably transferred into a centrifuge tube. The volume of the selected sputum sample was noted and an equal volume of DPBS added. To liquefy the sample Sputolysin® was added to a final concentration of 0.05% (w/v). The tube was placed on a plate shaker (300 rpm) for 30 minutes at room temperature to disperse the cells. After 30 minutes the sample was mixed gently with a Pasteur pipette and left to shake for a further 15 minutes. The sample was centrifuged at 1200 rpm for 10 minutes at room temperature. Sputum supernatant was collected and used to measure cytokines/chemokines of interest. […] The supernatant was removed and the cell pellet resuspended in 500 μl staining buffer ready for flow cytometric analysis. […] Levels of STAT phosphorylation in the macrophage population were determined by taking the MFI of the stimulated sample and dividing by the MFI for the non-stimulated sample.

[2] = tested on: intracellular pSTAT3 in sputum macrophages; assay: Flow cytometry of IFNγ-induced STAT3 phosphorylation in induced sputum macrophages from COPD subjects; details: % stimulation = stimulated MFI/non-stimulated MFI×100; IFNγ 10 ng/ml
Description: FIG. 10 is a bar graph showing STAT3 phosphorylation in sputum macrophages following stimulation with IFNγ in the absence or presence of increasing concentrations of a MK2 inhibitor. % stimulation was calculated as stimulated MFI/non-stimulated MFI×100.
The methods of Example 1 were repeated exactly, but this time measuring intracellular STAT3 phosphorylation using an Alexa Fluor® 647 conjugated anti-pSTAT3 antibody. In addition, a MK2 inhibitor was tested instead of a JAK inhibitor compound. Increasing concentrations of inhibitor were tested (1 μM, 10 μM and 100 μM); the same conditions otherwise applied.

[3] = tested on: intracellular pSTAT1(Y701) in macrophages; assay: Flow cytometry of IFNγ-induced STAT1(Y701) phosphorylation in induced sputum macrophages from smokers; details: unstimulated MFI 345.5; sputum from two smokers
Description: FIG. 11A is a line graph showing the stimulation of STAT1(Y701) phosphorylation in macrophages and neutrophils from induced sputum by IFNγ, and inhibition of such phosphorylation after pre-incubation with increasing concentrations of a MK2 inhibitor followed by IFNγ stimulation. FIG. 11B is a bar graph showing phosphorylation of STAT1 (Y701) in macrophages in the presence and absence of the MK2 inhibitor expressed as % stimulation. % stimulation was calculated as stimulated MFI/non-stimulated MFI×100.
Induced sputum samples were obtained as described in Example 1. In this study, however, the subjects were smokers. Sputum was collected from two subjects.
Sputum samples were processed as described in Example 1.
Inducing STAT1(Y701) Phosphorylation STAT phosphorylation was induced as described in Example 1. In this study, however, the inhibitor compound was a MK2 inhibitor […].
Samples were stained as described in Example 1. However, in this study, and in order to specifically detect STAT1(Y701) phosphorylation, an Alexa Fluor® 647 conjugated anti-pSTAT1(Y701) antibody was used.
Levels of STAT1(Y701) phosphorylation in the macrophage population were determined by taking the MFI of the stimulated sample and dividing by the MFI for the non-stimulated sample. A value of greater than one (>1) indicated positive staining.

## IFNγ: cytokine used as stimulator of STAT phosphorylation
[1]; 20 min, 37° C., unstimulated MFI 120.7±23.92, 15 COPD subjects
  MFI of intracellular pSTAT1 in macrophages after incubation with IFNγ: 196.7±33.97
[2]
  increase of intracellular pSTAT3 in sputum macrophages following incubation with IFNγ: 100%
[3]
  MFI of intracellular pSTAT1(Y701) in macrophages stimulated with IFNγ: 511

## C[C@@H]1CCN(C(=O)N2CCCC2)C[C@@H]1N(C)c1ncnc2[nH]ccc12 [JAK inhibitor, PF 956980]
[1]; inhibitor final concentration 10^−5 M
  inhibition of STAT1 phosphorylation (in words): complete inhibition
[1]; inhibitor final concentration 10^−5 M, unstimulated MFI 120.7±23.92, stimulated MFI 196.7±33.97
  MFI of intracellular pSTAT1 in macrophages after incubation with IFNγ+JAK inhibitor: 118.3±24.44
